Measurements from patent publication US20240108641A1, “COMPOSITIONS FOR ORAL ADMINISTRATION OF ZOLEDRONIC ACID OR RELATED COMPOUNDS FOR TREATING DISEASE” (ANTECIP BIOVENTURES II LLC, priority 2012, published 2024).

How the values were obtained:
[1] = test system: knee bone marrow lesions (BML); assay: clinical study in knee osteoarthritis with bone marrow lesions, BML size on MRI; assay type: in vivo, human; details: 5 mg intravenous; for average BML area decreased as compared to placebo: 6 months; for Change in BML Size / Change in BML Size, Difference from Placebo: baseline to 6 months
From the text: Some embodiments related to joint pain, bone marrow lesions, and osteoarthritis were conceived as a result of analyzing data from a clinical study. Some of the results of this study were reported by Laslett et al. in Ann Rheum Dis 2012; 71:1322-1328. Some of the description and data reported below was not published prior to filing the present application. Fifty-two (52) patients with clinical knee osteoarthritis and knee bone marrow lesions (BML) were randomized to receive either intravenous zoledronic acid (5 mg) or placebo in a double blind fashion. All patients had to have at least one bone marrow lesion (BML) in the affected knee on magnetic resonance imaging (MRI). All patients had x-ray of the knee for determination of joint space narrowing (JSN), which was graded according to the Osteoarthritis Research Society International (OARSI) atlas. Patients had either no joint space narrowing (OARSI Grade 0), or greater degrees of joint space narrowing (OARSI Grade 1 and Grade 2). Twenty six patients were treated with zoledronic acid (8, 6, and 12 with OARSI Grades 0, 1, and 2, respectively). Twenty six patients received placebo (8, 8, and 10 with OARSI Grades 0, 1 and 2, respectively).
BMLs were evaluated using proton density-weighted fat saturation MR images. BMLs were scored using Osiris software (University of Geneva, Geneva, Switzerland). The maximum size was measured in mm^2 using software cursors applied to the greatest area of each lesion. The lesion with the highest score was used if more than one was present at the same site. Each patient was given a BML score (mm^2) at each of the four sites (medial tibial, medial femoral, lateral tibial, and lateral femoral sites) and these were summed to create a total BML score (mm^2). The change in the total area of BMLs from baseline to 6 months was calculated.

[2] = test system: complex regional pain syndrome (CRPS); assay: rat tibia fracture model of complex regional pain syndrome, dosing from day of fracture; assay type: in vivo
Method: The effect of orally administered zoledronic acid was examined in the rat tibia fracture model of complex regional pain syndrome (CRPS). CRPS was induced in the rats by fracturing the right distal tibias of the animals and casting the fractured hindpaws for 4 weeks, as described in Guo T Z et al. (Pain. 2004; 108: 95-107).
Animals were orally administered either vehicle (control) or zoledronic acid, in a dosage of 18 mg/m^2/day (3 mg/kg/day) for 28 days, starting on the day of fracture and casting. Drug was dissolved in distilled water and administered by gavage. Animals were fasted for 4 hours before and 2 hours after dosing. At the end of the 28-day period, casts were removed, and on the following day, the rats were tested for hindpaw pain, edema, and warmth.
Pain was assessed by measuring hyperalgesia, and weight bearing.
To measure hyperalgesia, an up-down von Frey testing paradigm was used. Rats were placed in a clear plastic cylinder (20 cm in diameter) with a wire mesh bottom and allowed to acclimate for 15 minutes. The paw was tested with one of a series of eight von Frey hairs ranging in stiffness from 0.41 g to 15.14 g. The von Frey hair was applied against the hindpaw plantar skin at approximately midsole, taking care to avoid the tori pads. The fiber was pushed until it slightly bowed and then it was jiggled in that position for 6 seconds. Stimuli were presented at an interval of several seconds. Hindpaw withdrawal from the fiber was considered a positive response. […]
An incapacitance device (IITC Inc. Life Science, Woodland, CA, USA) was used to measure hindpaw weight bearing, a postural effect of pain. […] Eight readings (excluding the highest and lowest ones) were averaged to calculate the bilateral hindpaw weight-bearing values. Weight bearing data were analyzed as the ratio between right (fracture) and left hindpaw weight bearing values ((2R/(R+L))×100%). […]
The temperature of the hindpaw was measured using a fine wire thermocouple (Omega, Stanford, CT, USA) applied to the paw skin. […]

[3] = 18 mg/m^2/day oral for 28 days from fracture

`O=P(O)(O)C(O)(Cn1ccnc1)P(=O)(O)O` [zoledronic acid] was tested, and the “average BML area decreased as compared to placebo” value ([1]; OARSI Grade 0) was “approximately 190 mm^2”, the “average BML area decreased as compared to placebo” value ([1]; OARSI Grades 1-2) was “approximately 33 mm^2” and the “Change in BML Size” value ([1]; OARSI Grade 0) was −244 mm^2. For the same compound, the “Change in BML Size, Difference from Placebo” value ([1]; OARSI Grade 0) was −190 mm^2, the “Change in BML Size” value ([1]; OARSI Grades 1-2) was −117 mm^2 and the “Change in BML Size, Difference from Placebo” value ([1]; OARSI Grades 1-2) was −33 mm^2. The “overall effect compared to vehicle treated animals” value ([2]; 18 mg/m^2/day (3 mg/kg/day) oral for 28 days from fracture) was “reversed pain, restored weight bearing, and prevented edema”, the hindlimb weight bearing [2, 3] was 86 % of normal and the “reversal of fracture induced pain (von Frey) as compared to vehicle” value [2, 3] was 77%.
